Measured values reported in ChEMBL document CHEMBL1177848, “Synthesis of novel 6,6a,7,8-tetrahydro-5H-naphtho[1,2-e]pyrimido[4,5-b][1,4]diazepines under microwave irradiation as potential anti-tumor agents” (2010).
The source made the active and inactive calls. The rule behind the calls is not given here.

Key:
DU-145 = experiment: Growth inhibition of human DU145 cells at 1 uM after 48 hrs by sulforhodamine B assay; assay type: functional, cell-based
LOX IMVI = experiment: Growth inhibition of human LOXIMVI cells after 48 hrs by sulforhodamine B assay; assay type: functional
786-0 = experiment: Growth inhibition of human 786-0 cells at 1 uM after 48 hrs by sulforhodamine B assay; assay type: functional, cell-based
SN12C = experiment: Growth inhibition of human SN12C cells after 48 hrs by sulforhodamine B assay; assay type: functional; conditions: for CC50: read-out: LC50 (the source's name)
SK-MEL-5 = experiment: Growth inhibition of human SK-MEL-5 cells after 48 hrs by sulforhodamine B assay; assay type: functional; conditions: SK-MEL-5, 48 h
A498 = experiment: Growth inhibition of human A498 cells at 1 uM after 48 hrs by sulforhodamine B assay; assay type: functional, cell-based
CAKI-1 [1] = experiment: Growth inhibition of human Caki1 cells at 1 uM after 48 hrs by sulforhodamine B assay; assay type: functional, cell-based
SR = experiment: Growth inhibition of human SR cells at 1 uM after 48 hrs by sulforhodamine B assay; assay type: functional, cell-based
HCT-116 = experiment: Growth inhibition of human HCT116 cells after 48 hrs by sulforhodamine B assay; assay type: functional; conditions: HCT-116, 48 h
U-251 = experiment: Growth inhibition of human U251 cells after 48 hrs by sulforhodamine B assay; assay type: functional; conditions: U-251, 48 h
CCRF-CEM = experiment: Growth inhibition of human CCRF-CEM cells at 1 uM after 48 hrs by sulforhodamine B assay; assay type: functional, cell-based
OVCAR-3 = experiment: Growth inhibition of human OVCAR-3 cells after 48 hrs by sulforhodamine B assay; assay type: functional; conditions: OVCAR-3, 48 h
SW-620 = experiment: Growth inhibition of human SW620 cells after 48 hrs by sulforhodamine B assay; assay type: functional; conditions: SW-620, 48 h
MDA-MB-468 [2] = experiment: Growth inhibition of human MDA-MB-468 cells at 1 uM after 48 hrs by sulforhodamine B assay; assay type: functional, cell-based
NCI-H226 = experiment: Growth inhibition of human NCI-H226 cells after 48 hrs by sulforhodamine B assay; assay type: functional; conditions: NCI-H226, 48 h
HOP-92 = experiment: Growth inhibition of human HOP92 cells after 48 hrs by sulforhodamine B assay; assay type: functional; conditions: HOP-92, 48 h
EKVX = experiment: Growth inhibition of human EKVX cells at 1 uM after 48 hrs by sulforhodamine B assay; assay type: functional, cell-based
KM12 = experiment: Growth inhibition of human KM12 cells after 48 hrs by sulforhodamine B assay; assay type: functional; conditions: KM12, 48 h
RPMI-8226 = experiment: Growth inhibition of human RPMI8226 cells after 48 hrs by sulforhodamine B assay; assay type: functional; conditions: RPMI-8226, 48 h
UACC-62 [3] = experiment: Growth inhibition of human UACC62 cells after 48 hrs by sulforhodamine B assay; assay type: functional; conditions: UACC-62, 48 h
HCT-15 = experiment: Growth inhibition of human HCT15 cells after 48 hrs by sulforhodamine B assay; assay type: functional; conditions: HCT-15, 48 h
NCI-H522 [4] = experiment: Growth inhibition of human NCI-H522 cells after 48 hrs by sulforhodamine B assay; assay type: functional; conditions: NCI-H522, 48 h
NCI/ADR-RES [5] = experiment: Growth inhibition of human NCI/ADR-RES cells at 1 uM after 48 hrs by sulforhodamine B assay; assay type: functional, cell-based
UACC-62 [6] = experiment: Growth inhibition of human UACC62 cells at 1 uM after 48 hrs by sulforhodamine B assay; assay type: functional, cell-based
TK-10 [7] = experiment: Growth inhibition of human TK10 cells at 1 uM after 48 hrs by sulforhodamine B assay; assay type: functional, cell-based
HCC 2998 = experiment: Growth inhibition of human HCC2998 cells at 1 uM after 48 hrs by sulforhodamine B assay; assay type: functional, cell-based
NCI-H460 = experiment: Growth inhibition of human NCI-H460 cells at 1 uM after 48 hrs by sulforhodamine B assay; assay type: functional, cell-based
T47D = experiment: Growth inhibition of human T47D cells at 1 uM after 48 hrs by sulforhodamine B assay; assay type: functional, cell-based
TK-10 [8] = experiment: Growth inhibition of human TK10 cells after 48 hrs by sulforhodamine B assay; assay type: functional; conditions: TK-10, 48 h
SF-295 = experiment: Growth inhibition of human SF295 cells after 48 hrs by sulforhodamine B assay; assay type: functional; conditions: SF-295, 48 h
CAKI-1 [9] = experiment: Growth inhibition of human Caki1 cells after 48 hrs by sulforhodamine B assay; assay type: functional; conditions: CAKI-1, 48 h; for CC50: read-out: LC50 (the source's name)
NCI-H23 = experiment: Growth inhibition of human NCI-H23 cells at 1 uM after 48 hrs by sulforhodamine B assay; assay type: functional, cell-based
SNB-75 = experiment: Growth inhibition of human SNB75 cells at 1 uM after 48 hrs by sulforhodamine B assay; assay type: functional, cell-based
MDA-MB-435 = experiment: Growth inhibition of human MDA-MB-435 cells after 48 hrs by sulforhodamine B assay; assay type: functional; conditions: MDA-MB-435, 48 h
PC-3 = experiment: Growth inhibition of human PC3 cells after 48 hrs by sulforhodamine B assay; assay type: functional; conditions: PC-3, 48 h
COLO 205 = experiment: Growth inhibition of human COLO205 cells at 1 uM after 48 hrs by sulforhodamine B assay; assay type: functional, cell-based
NCI-H522 [10] = experiment: Growth inhibition of human NCI-H522 cells at 1 uM after 48 hrs by sulforhodamine B assay; assay type: functional, cell-based
ACHN = experiment: Growth inhibition of human ACHN cells after 48 hrs by sulforhodamine B assay; assay type: functional
MDA-MB-468 [11] = experiment: Growth inhibition of human MDA-MB-468 cells after 48 hrs by sulforhodamine B assay; assay type: functional; conditions: MDA-MB-468, 48 h; for CC50: read-out: LC50 (the source's name)
SF-268 = experiment: Growth inhibition of human SF268 cells at 1 uM after 48 hrs by sulforhodamine B assay; assay type: functional, cell-based
NCI/ADR-RES [12] = experiment: Growth inhibition of human NCI/ADR-RES cells after 48 hrs by sulforhodamine B assay; assay type: functional
Hs-578T = experiment: Growth inhibition of human Hs 578T cells at 1 uM after 48 hrs by sulforhodamine B assay; assay type: functional, cell-based
BT-549 = experiment: Growth inhibition of human BT549 cells at 1 uM after 48 hrs by sulforhodamine B assay; assay type: functional, cell-based
MCF7 = experiment: Growth inhibition of human MCF7 cells at 1 uM after 48 hrs by sulforhodamine B assay; assay type: functional, cell-based
M14 = experiment: Growth inhibition of human M14 cells at 1 uM after 48 hrs by sulforhodamine B assay; assay type: functional, cell-based

What does the source list for `Nc1nc(N)c2c(n1)NC(c1ccccc1)C1CCc3ccccc3C1=N2` (centres undefined)?
growth inhibition (GI) (DU-145): inactive; GI50 (LOX IMVI): 3.79 µM; LC50 (LOX IMVI): 40.6 µM; growth inhibition (GI) (786-0): inactive; GI50 (SN12C): 7.33 µM; CC50 (SN12C): 50.8 µM; GI50 (SK-MEL-5): 0.638 µM; LC50 (SK-MEL-5): 6.35 µM; growth inhibition (GI) (A498): inactive; growth inhibition (GI) (CAKI-1 [1]): inactive; growth inhibition (GI) (SR): inactive; GI50 (HCT-116): 2.97 µM; LC50 (HCT-116): 38 µM; GI50 (U-251): 4.65 µM; LC50 (U-251): 44 µM; growth inhibition (GI) (CCRF-CEM): inactive; GI50 (OVCAR-3): 3.48 µM; LC50 (lethal concentration, 50% cell kill) (OVCAR-3): 39.4 µM; GI50 (SW-620): 6.3 µM; LC50 (SW-620): 53.3 µM; growth inhibition (GI) (MDA-MB-468 [2]): inactive; GI50 (NCI-H226): 5.96 µM; LC50 (NCI-H226): > 100 µM; GI50 (HOP-92): 2.55 µM; LC50 (50% lethal concentration) (HOP-92): 40.6 µM; growth inhibition (GI) (EKVX): inactive; GI50 (KM12): 4.07 µM; LC50 (concentration killing 50% of cells) (KM12): 39.7 µM; GI50 (RPMI-8226): 3.21 µM; LC50 (RPMI-8226): > 100 µM; GI50 (UACC-62 [3]): 3.11 µM; LC50 (UACC-62 [3]): 45 µM; GI50 (HCT-15): 4.06 µM; LC50 (HCT-15): 48.8 µM; GI50 (NCI-H522 [4]): 4.53 µM; LC50 (NCI-H522 [4]): 65.4 µM; growth inhibition (GI) (NCI/ADR-RES [5]): inactive; growth inhibition (GI) (UACC-62 [6]): inactive; growth inhibition (GI) (TK-10 [7]): inactive; growth inhibition (GI) (HCC 2998): inactive; growth inhibition (GI) (NCI-H460): inactive; growth inhibition (GI) (T47D): inactive; GI50 (TK-10 [8]): 3.01 µM; LC50 (50% lethal concentration) (TK-10 [8]): 43.6 µM; GI50 (SF-295): 1.69 µM; LC50 (50% lethal concentration) (SF-295): 34.4 µM; GI50 (CAKI-1 [9]): 3.97 µM; CC50 (CAKI-1 [9]): 48.5 µM; growth inhibition (GI) (NCI-H23): inactive; growth inhibition (GI) (SNB-75): inactive; GI50 (MDA-MB-435): 2.93 µM; LC50 (concentration killing 50% of cells) (MDA-MB-435): 39.9 µM; GI50 (PC-3): 2.82 µM; LC50 (PC-3): > 100 µM; growth inhibition (GI) (COLO 205): inactive; growth inhibition (GI) (NCI-H522 [10]): inactive; GI50 (ACHN): 4.38 µM; LC50 (50% lethal concentration) (ACHN): 41.9 µM; GI50 (MDA-MB-468 [11]): 0.473 µM; CC50 (MDA-MB-468 [11]): 20.8 µM; growth inhibition (GI) (SF-268): inactive; GI50 (NCI/ADR-RES [12]): 3.13 µM; LC50 (concentration killing 50% of cells) (NCI/ADR-RES [12]): > 100 µM; growth inhibition (GI) (Hs-578T): inactive; growth inhibition (GI) (BT-549): inactive; growth inhibition (GI) (MCF7): inactive; growth inhibition (GI) (M14): inactive

What does the source list for `Nc1nc(N)c2c(n1)NC(c1ccc(F)cc1)C1CCc3ccccc3C1=N2` (centres undefined)?
growth inhibition (GI) (DU-145): inactive; GI50 (LOX IMVI): 3.98 µM; LC50 (LOX IMVI): 43 µM; growth inhibition (GI) (786-0): inactive; GI50 (SN12C): 7.8 µM; CC50 (SN12C): 50.9 µM; GI50 (SK-MEL-5): 0.609 µM; LC50 (SK-MEL-5): 6.03 µM; growth inhibition (GI) (A498): inactive; growth inhibition (GI) (CAKI-1 [1]): inactive; growth inhibition (GI) (SR): inactive; GI50 (HCT-116): 3.04 µM; LC50 (HCT-116): 34.5 µM; GI50 (U-251): 4.29 µM; LC50 (U-251): 44.1 µM; growth inhibition (GI) (CCRF-CEM): inactive; GI50 (OVCAR-3): 4.15 µM; LC50 (lethal concentration, 50% cell kill) (OVCAR-3): 43.2 µM; GI50 (SW-620): 4.87 µM; LC50 (SW-620): 42.9 µM; growth inhibition (GI) (MDA-MB-468 [2]): inactive; GI50 (NCI-H226): 5.97 µM; LC50 (NCI-H226): 74.4 µM; GI50 (HOP-92): 1.17 µM; LC50 (50% lethal concentration) (HOP-92): 31.5 µM; growth inhibition (GI) (EKVX): inactive; GI50 (KM12): 4.93 µM; LC50 (concentration killing 50% of cells) (KM12): 43.1 µM; GI50 (RPMI-8226): 1.81 µM; LC50 (RPMI-8226): 62.8 µM; GI50 (UACC-62 [3]): 3.76 µM; LC50 (UACC-62 [3]): 42.1 µM; GI50 (HCT-15): 3.99 µM; LC50 (HCT-15): 43 µM; GI50 (NCI-H522 [4]): 5.66 µM; LC50 (NCI-H522 [4]): 58 µM; growth inhibition (GI) (NCI/ADR-RES [5]): inactive; growth inhibition (GI) (UACC-62 [6]): inactive; growth inhibition (GI) (TK-10 [7]): inactive; growth inhibition (GI) (HCC 2998): inactive; growth inhibition (GI) (NCI-H460): inactive; growth inhibition (GI) (T47D): inactive; GI50 (TK-10 [8]): 3.63 µM; LC50 (50% lethal concentration) (TK-10 [8]): 50.9 µM; GI50 (SF-295): 8.64 µM; LC50 (50% lethal concentration) (SF-295): 59.7 µM; GI50 (CAKI-1 [9]): 2.72 µM; CC50 (CAKI-1 [9]): 44.6 µM; growth inhibition (GI) (NCI-H23): inactive; growth inhibition (GI) (SNB-75): inactive; GI50 (MDA-MB-435): 2.84 µM; LC50 (concentration killing 50% of cells) (MDA-MB-435): 35.1 µM; GI50 (PC-3): 2.03 µM; LC50 (PC-3): 40.3 µM; growth inhibition (GI) (COLO 205): inactive; growth inhibition (GI) (NCI-H522 [10]): inactive; GI50 (ACHN): 4.96 µM; LC50 (50% lethal concentration) (ACHN): 42.2 µM; GI50 (MDA-MB-468 [11]): 1.43 µM; CC50 (MDA-MB-468 [11]): 33 µM; growth inhibition (GI) (SF-268): inactive; GI50 (NCI/ADR-RES [12]): 3.19 µM; LC50 (concentration killing 50% of cells) (NCI/ADR-RES [12]): 39.4 µM; growth inhibition (GI) (Hs-578T): inactive; growth inhibition (GI) (BT-549): inactive; growth inhibition (GI) (MCF7): inactive; growth inhibition (GI) (M14): inactive
